{"source": "patent US9504252B2", "about": "“Microbiocides and uses thereof” (Buckman Laboratories International, Inc., priority 2014, dated 2016)", "key": {"[1]": {"tested_on": "sulfate reducing bacteria (SRB)", "assay": "kill study, API broth serial dilution (SRB)", "assay_type": "cell-based", "details": "for API SERIES: SRB count, seven days, 30° C.", "method": "(§1) A one gallon sample of cone water from a contaminated drilling fluid (run through a hydrocyclone) in the DJ (Denver-Julesburg Basin) formation was employed for these studies. The cone water pH was measured at 6.4 and the redox potential was at 34.6. The sample included anaerobic sulfate reducing, aerobic and anaerobic acid producing bacteria and general heterotrophic bacteria. Both organism types were present in this sample with the SRB+H2S at levels in excess of 10^12 bacteria per milliliter in the original sample.\n(§2) In order to ensure that the active range was captured, the contaminated water was diluted with Butterfield phosphate buffer solution to a concentration of 0.1% of its original concentration. Serial dilutions were made using 1 cc sterile syringes to inoculate 9.0 mL anaerobic American Petroleum Institute (API) broth with an iron nail designed for sulfate reducing bacteria (SRB). In addition, Acid Producing B acteria (APB) and General Heterotrophic Bacteria (GHB) were tested using serial dilutions in 9 mL phenol red (PR) broth. The media salinity was matched to the substrate salinity of ≈0.5% that was measured by percent Total Dissolved Solids (TDS). Additionally, an untreated control was included. In all cases the concentration was determined on a weight/weight basis of parts per million (milligrams per kilogram). Each aliquot was continuously mixed (in a thermally controlled incubator) well after the addition of the biocide and maintained at 30° C. for the duration of study.\n(§3) Untreated and treated aliquots were inspected after seven days checking to see if the bottles the API bottles turned black (indicating positive SRB growth) and to see if the PRD bottles turned yellow (indicating the presence of APB) and/or turbidity (indicating the presence of GHB). A color change at the highest dilution indicated the log quantity of organisms present."}, "[2]": {"tested_on": "Acid Producing Bacteria (APB) and General Heterotrophic Bacteria (GHB)", "assay": "kill study, phenol red broth serial dilution (APB/GHB)", "assay_type": "cell-based", "details": "for PRD SERIES: APB and GHB count, seven days, 30° C.", "method": "as §1, §2, §3"}}, "note": "“Also recorded” adds a separate entry of the source.", "data": [{"smiles": "CNC(=S)[S-].[Na+]", "note": "[SNMDTC, sodium-N-methyldithiocarbamate]", "values": [{"measurement": "decrease in SRB concentration", "setting": "[1]; 1,000 ppm", "value": "did not appear to be any noticeable decrease"}, {"measurement": "API SERIES", "setting": "[1]; 1,000 ppm total biocide", "value": ">10^4"}, {"measurement": "API SERIES", "setting": "[1]; 10,000 ppm total biocide", "value": ">10^2"}, {"measurement": "decrease in bacterial concentration of SRB", "setting": "[1]; 10,000 ppm, over a period of eight days", "value": "two"}, {"measurement": "decrease in APB/GHB concentration", "setting": "[2]; 1,000 ppm", "value": "did not appear to be any noticeable decrease; also recorded: did not have any noticeable effect"}, {"measurement": "PRD SERIES", "setting": "[2]; 1,000 ppm total biocide", "value": "≧10^3"}, {"measurement": "PRD SERIES", "setting": "[2]; 10,000 ppm total biocide", "value": ">10^2"}]}]}
